Measurements as given in US20230364032A1, “USE OF 2-HOBA TO TREAT ATHEROSCLEROSIS” (Vanderbilt University, priority 2020, published 2023).
Several values for one entry are separate records, joined by “and”; a condition that tells them apart may be missing. Identical values can stand only once. Entries after “also recorded” stand apart in the source; their conditions may differ.

Assays:
[1] = Body weight, water intake, diet consumption, mortality; type: in vivo; conditions: Ldlr−/− mice, western diet 16 weeks, 1 g/L; compared to vehicle or 4-HOBA
Protocol: The body weight (FIG. 8A), water intake (FIG. 8B), and diet consumption (FIG. 8C) were measured in the Ldlr^−/− mice consuming a Western diet for 16 weeks and treated with 1 g/L 2-HOBA, 4-HOBA, or vehicle. (FIG. 8D) The plasma was pooled from hypercholesterolemic Ldlr^−/− mice (4 mice/group) that were fasted for 6 hours. Fast performance liquid chromatography (FPLC) was performed using a Superose 6 column. Total cholesterol was measured by an enzymatic assay and the average is shown for two pooled plasma samples per group of mice.
Ldlr^−/− and WT on C57BL/6 background mice were obtained from the Jackson Laboratory. Animal protocols were performed according to the regulations of Vanderbilt University's Institutional Animal Care and Usage Committee. Mice were maintained on chow or a Western-type diet containing 21% milk fat and 0.15% cholesterol (Teklad). Eight week old, female Ldlr^−/− mice on a chow diet were pretreated with vehicle alone (Water) or containing either 1 g/L of 4-HOBA or 1 g/L of 2-HOBA. 4-HOBA (as hydrochloride salt) was synthesized as previously described^21. 2-HOBA (as the acetate salt, CAS 1206675-01-5) was manufactured by TSI Co., Ltd. (Missoula, MT) and obtained from Metabolic Technologies, Inc., Ames, IA^24. A commercial production lot was used (Lot 16120312), and the purity of the commercial lot was verified to be >99% via HPLC and NMR spectroscopy^24. […]

[2] = tested on: MDA; assay: MDA-HOBA (propenal-HOBA) adducts in urine and tissues after oral gavage (LC-MS/MS); type: in vivo, mouse
Protocol: Urine samples were collected for 16 h after oral gavage of male Ldlr^−/− mice on a WD with either 2-HOBA or 4-HOBA. After 16 h, the Ldlr^−/− mice were sacrificed and the HOBA-propenal adducts in urine (14A), liver (14B), kidney (14C) and spleen (14D) were measured using LC-MS/MS as described in methods (14A-D) (Mann-Whitney test, ** indicates p<0.01 and *** indicates p<0.001).
Ldlr^−/− and WT on C57BL/6 background mice were obtained from the Jackson Laboratory. Animal protocols were performed according to the regulations of Vanderbilt University's Institutional Animal Care and Usage Committee. Mice were maintained on chow or a Western-type diet containing 21% milk fat and 0.15% cholesterol (Teklad). Eight week old, female Ldlr^−/− mice on a chow diet were pretreated with vehicle alone (Water) or containing either 1 g/L of 4-HOBA or 1 g/L of 2-HOBA. 4-HOBA (as hydrochloride salt) was synthesized as previously described^21. 2-HOBA (as the acetate salt, CAS 1206675-01-5) was manufactured by TSI Co., Ltd. (Missoula, MT) and obtained from Metabolic Technologies, Inc., Ames, IA^24. A commercial production lot was used (Lot 16120312), and the purity of the commercial lot was verified to be >99% via HPLC and NMR spectroscopy^24. After two weeks, the mice continued to receive these treatments but were switched to a western diet for 16 weeks to induce hypercholesterolemia and atherosclerosis. Similarly, 12 week-old male Ldlr^−/− mice were pretreated with vehicle alone (water) or containing 1 g/L of 2-HOBA for two weeks and were then switched to a western diet for 16 weeks to induce hypercholesterolemia and atherosclerosis, while continuing the treatment with 2-HOBA or water alone^58, 59, 60 Based on the average weight and daily consumption of water per mouse the estimated daily dosage with 1 g/L of 2-HOBA is 200 mg/Kg. […] Eight week old, male Ldlr^−/− mice were fed a western diet for 16 weeks and were continuously treated with water containing either 2-HOBA or 4-HOBA. Urine samples were collected using metabolic cages (2 mice in one cage) during 18 h after oral gavage with either 2-HOBA or 4-HOBA (5 mg each mouse).
The scavenger-MDA adducts were extracted, (1) from homogenate of tissue (equivalent of 30 mg) or (2) from cells (1 ml), three times with 500 μl of ethyl acetate. The extract was dried down, resuspended in 100 μl of ACN-water (1:1, v/v with 0.1% formic acid), vortexed, and filtered through a 0.22 μm spin X column. The reactions were analyzed by LC-EST/MS/MS using the column a Phenomenex Kinetex column at a flow rate of 0.1 ml/min. The gradient consisted of Solvent A, water with 0.2% formic acid and solvent B, acetonitrile with 0.2% formic acid. The gradient was as follows: 0-2 min 99.9% A, 2-9 min 99.9-0.1% A, 9-12 min 99.9% B. The mass spectrometer was operated in the positive ion mode, and the spray voltage was maintained at 5,000 V. Nitrogen was used for the sheath gas and auxiliary gas at pressures of 30 and 5 arbitrary units, respectively. The optimized skimmer offset was set at 10, capillary temperature was 300° C., and the tube lens voltage was specific for each compound. SRM of specific transition ions for the precursor ions at m/z 178→107 (propenal-HOBA adduct).

[3] = tested on: atherosclerotic lesions of Ldlr−/− mice; assay: Lesion apoptosis (TUNEL) and efferocytosis; type: in vivo, mouse
Protocol: Cell apoptosis was induced as indicated and detected by fluorescent labeled Annexin V staining and quantitated by either Flow Cytometry (BD 5 LSRII) or counting Annexin V positive cells in images captured under a fluorescent microscope. The apoptotic cells in atherosclerotic lesions were measured by TUNEL staining of cross-sections of atherosclerotic proximal aortas as previously described^30. The TUNEL positive cells not associated with live macrophages were considered free apoptotic cells and macrophage-associated apoptotic cells were considered phagocytosed as a measure of lesion efferocytosis as previously described^30.

[4] = 16 h post oral gavage, Ldlr−/− mice

NCc1ccccc1O [2-HOBA, 2-hydroxybenzylamine]
body weight, water consumption, diet uptake [1]: did not affect; also recorded: does not impact
propenal-HOBA adducts in kidney, 2-HOBA versus 4-HOBA [2, 4]: 5 fold
propenal-HOBA adducts in liver, 2-HOBA versus 4-HOBA [2, 4]: 3 fold
propenal-HOBA adducts in spleen, 2-HOBA versus 4-HOBA [2, 4]: 11 fold
formation of MDA-HOBA adducts in vivo ([2]; Ldlr−/− mice on WD, oral gavage): abundantly formed; also recorded: more readily formed
MDA-2-HOBA versus MDA-4-HOBA (propenal-HOBA) adducts in urine ([2]; urine collected during 16 h after oral gavage (5 mg), Ldlr−/− mice on western diet 16 weeks): 19 fold
efferocytosis and cell death in atherosclerotic lesions ([3]; Ldlr−/− mice): enhanced efferocytosis; also recorded: prevents cell death and increases efferocytosis
reduction of number of TUNEL positive cells in proximal aortic lesions ([3]; Ldlr−/− mice, compared to 4-HOBA): 72.4%
reduction of number of TUNEL positive cells in proximal aortic lesions ([3]; Ldlr−/− mice, compared to vehicle): 72% and 72.9%
increase of TUNEL positive cells not associated with macrophages ([3]; lesions of mice treated with 4-HOBA versus 2-HOBA): 2.0 fold
increase of TUNEL positive cells not associated with macrophages ([3]; lesions of mice treated with vehicle versus 2-HOBA): 1.9 fold
